The values that follow come from ChEMBL document CHEMBL1201862, “PubChem BioAssay data set” (2004).

Among the test systems are UACC-257; KM12; EKVX; OVCAR-5; SR; OVCAR-4; MOLT-4; HCT-15; OVCAR-3; HT-29; HCC 2998; SF-539; SF-268; SNB-19; NCI-H23; Malme-3M; COLO 205; NCI-H226; HOP-92.
What all share (test): DTP human tumour cell line panel, 48 h

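Compound exposure: 48 hours, 5 concentrations, 96-well plates. The concentration for 50% growth inhibition is given as GI50.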 The source made the active and inactive calls. Rule as the data show it: active = GI50 up to about 1.1 µM and inactive = higher.

On to `Cc1cc(NCCCCCCNc2cc(C)nc3cc(N(C)C)ccc23)c2ccc(N(C)C)cc2n1`, for which the GI50 with UACC-257 is 31.6 µM (inactive); in the assay with KM12, 11.8 µM (inactive); with EKVX, > 100 µM (inactive); in the assay with OVCAR-5, 22.4 µM (inactive); in the assay with SR it was 11 µM (inactive); with OVCAR-4, 22.6 µM (inactive). Also, the GI50 in the assay with MOLT-4 is 6.9 µM (inactive); in the assay with HCT-15, > 100 µM; with OVCAR-3 it was 57.1 µM (inactive); with HT-29 it was 36.1 µM (inactive); with HCC 2998, 22.4 µM (inactive); with SF-539, 59.6 µM (inactive). The GI50 in the assay on SF-268 is 57.9 µM (inactive); in the assay on SNB-19, 1.67 µM (inactive); with NCI-H23, 25.1 µM (inactive); with Malme-3M, 13.2 µM (inactive).

As to `CCOC(=O)N1c2ccccc2C(C)=CC(C)C1C` (configuration not stated), the GI50 with UACC-257 is 12.7 µM (inactive); with KM12 it was 9.82 µM (inactive); in the assay with EKVX it was 35.3 µM (inactive); in the assay with OVCAR-5, 40.1 µM (inactive); with SR it was 5.09 µM (inactive); in the assay with OVCAR-4 it was 60.5 µM (inactive). The GI50 is 39.4 µM (inactive) with MOLT-4; 5.36 µM with HCT-15; 29.2 µM (inactive) in the assay on COLO 205; 16.7 µM (inactive) with OVCAR-3; 10.7 µM (inactive) in the assay with HT-29; 45.6 µM (inactive) in the assay with HCC 2998. The GI50 in the assay with SF-539 is 20.4 µM (inactive); with SF-268, 38 µM (inactive); in the assay on SNB-19, 42.8 µM (inactive); with NCI-H23, 22.8 µM (inactive); with Malme-3M, 33.9 µM (inactive); in the assay with NCI-H226, 22.8 µM (inactive).

With `O=[N+]([O-])/C(C(Cl)=C(Cl)Cl)=C1\NCCS1`, the GI50 with UACC-257 is 42.2 µM (inactive); with KM12, 69.7 µM (inactive); in the assay with EKVX, > 100 µM (inactive); in the assay with OVCAR-5, > 100 µM (inactive); in the assay with SR, 18.4 µM (inactive); in the assay with OVCAR-4, 29.1 µM (inactive). Moreover, the GI50 was 21.9 µM (inactive) with MOLT-4; 35.6 µM with HCT-15; 40.1 µM (inactive) in the assay with COLO 205; 33.3 µM (inactive) with OVCAR-3; 47.8 µM (inactive) in the assay with HT-29; 34.4 µM (inactive) in the assay on HCC 2998. Moreover, the GI50 in the assay on SF-539 was 42.5 µM (inactive); in the assay with SF-268 it was 39.9 µM (inactive); in the assay with SNB-19, > 100 µM (inactive); in the assay on NCI-H23, 31.5 µM (inactive); with Malme-3M, 19.7 µM (inactive); in the assay with NCI-H226, > 100 µM (inactive).

On to `c1c[nH]c(-c2cccc3nsnc23)c1`, for which the GI50 in the assay on UACC-257 is > 100 µM (inactive); in the assay on KM12 it was 30.8 µM (inactive); in the assay on EKVX, 33 µM (inactive); with OVCAR-5 it was 31.8 µM (inactive); in the assay on SR it was 25.1 µM (inactive); in the assay on OVCAR-4, 38.8 µM (inactive). The GI50 with MOLT-4 was 40.7 µM (inactive); in the assay with HCT-15, 15.7 µM; with COLO 205, 13.5 µM (inactive); in the assay on HT-29, 53.3 µM (inactive); in the assay on HCC 2998, > 100 µM (inactive); in the assay with SF-539, > 100 µM (inactive). The GI50 with SF-268, in the assay with SNB-19, in the assay on NCI-H23, with Malme-3M and in the assay on NCI-H226 was > 100 µM (inactive) in each case.

Consider `COc1cc2oc(=O)cc(C)c2c(OC)c1O`, for which the GI50 in the assay with UACC-257, in the assay on KM12, in the assay with EKVX, in the assay on OVCAR-5, in the assay with SR and in the assay with OVCAR-4 was > 100 µM (inactive) in each case. Besides, the GI50 in the assay with MOLT-4 was > 100 µM (inactive); with HCT-15, > 100 µM; in the assay with COLO 205, > 100 µM (inactive); in the assay with OVCAR-3, > 100 µM (inactive); in the assay with HT-29 it was > 100 µM (inactive); with SF-539, > 100 µM (inactive). Also, the GI50 in the assay with SF-268, in the assay with SNB-19, in the assay with NCI-H23, in the assay with Malme-3M and with NCI-H226 was > 100 µM (inactive) in each case.

Take `O=c1oc2ccccc2n1CCCn1c(=O)oc2ccccc21`: the GI50 with UACC-257, in the assay with KM12, with EKVX, in the assay on OVCAR-5, with SR and with MOLT-4 was > 100 µM (inactive) each time. The concentration for 50% growth inhibition (GI50) in the assay with HCT-15 was > 100 µM; in the assay on COLO 205 it was > 100 µM (inactive); with OVCAR-3, > 100 µM (inactive); in the assay with HT-29 it was > 100 µM (inactive); in the assay with SF-539, > 100 µM (inactive); in the assay on SF-268, > 100 µM (inactive). The GI50 in the assay on SNB-19, with NCI-H23, in the assay on Malme-3M and with NCI-H226 was > 100 µM (inactive) in each case.

For `CCCn1c(SC)nc(COC(=O)NC)c1COC(=O)NC`, the GI50 with UACC-257, with KM12, in the assay on EKVX, with OVCAR-5, with SR and with OVCAR-4 was > 100 µM (inactive) in each case. The GI50 in the assay with MOLT-4 was > 100 µM (inactive); with HCT-15 it was > 100 µM; in the assay on COLO 205, > 100 µM (inactive); in the assay with OVCAR-3, > 100 µM (inactive); in the assay on HT-29, > 100 µM (inactive); with SF-539 it was > 100 µM (inactive). For the same molecule, the GI50 in the assay with SF-268, in the assay on SNB-19, with NCI-H23 and with NCI-H226 was > 100 µM (inactive) in each case.

`Cc1ccc2c(c1)C(=O)N1CCC[C@H]1C=N2`: the GI50 in the assay with UACC-257 was 21.9 µM (inactive); in the assay on KM12, 15.5 µM (inactive); with EKVX, 26.4 µM (inactive); in the assay on OVCAR-5, 28.4 µM (inactive); in the assay with HOP-92, 25.5 µM (inactive); in the assay on OVCAR-4, 19.4 µM (inactive). Also, the GI50 in the assay on MOLT-4 was 18.8 µM (inactive); in the assay on HCT-15, 28.5 µM; in the assay on COLO 205, 17.6 µM (inactive); with OVCAR-3, 19.1 µM (inactive); in the assay with HT-29 it was 15.4 µM (inactive); in the assay with HCC 2998, 19.6 µM (inactive). Also, the GI50 was 18.3 µM (inactive) in the assay on SF-539; 31.3 µM (inactive) in the assay on SF-268; 28.2 µM (inactive) in the assay with SNB-19; 16.5 µM (inactive) in the assay on NCI-H23; 18.7 µM (inactive) in the assay with Malme-3M.

As for `N#C/C(=C/NC(N)=S)C(N)=O`, the GI50 in the assay with UACC-257, with KM12, in the assay on EKVX, with OVCAR-5, in the assay on HOP-92 and in the assay on OVCAR-4 was > 100 µM (inactive) each time. In addition, the 50% growth inhibitory concentration (GI50) was > 100 µM in the assay with HCT-15; > 100 µM (inactive) in the assay on COLO 205; > 100 µM (inactive) in the assay with OVCAR-3; > 100 µM (inactive) with HT-29; > 100 µM (inactive) with HCC 2998; > 100 µM (inactive) in the assay on SF-539. For the same molecule, the GI50 in the assay with SF-268, in the assay with SNB-19, in the assay with NCI-H23 and in the assay with NCI-H226 was > 100 µM (inactive) in each case.

Turning to `COC(=O)NC1(NC(=O)OC)NC(=O)c2cc(OC)c(OC)cc2N1`, the GI50 in the assay on UACC-257 is 45 µM (inactive); in the assay with KM12 it was 35.8 µM (inactive); in the assay on EKVX it was 89.3 µM (inactive); in the assay on OVCAR-5, > 100 µM (inactive); in the assay with SR, 25.4 µM (inactive); in the assay on HCT-15, 13.2 µM. Moreover, the GI50 is 20.2 µM (inactive) in the assay on COLO 205; 21.2 µM (inactive) with OVCAR-3; 25.6 µM (inactive) in the assay with SF-539; 78.7 µM (inactive) in the assay with SF-268; 55.5 µM (inactive) in the assay on SNB-19; 50.2 µM (inactive) in the assay on NCI-H23.

Take `Cc1ccc(N/C(=C(/C(Cl)=C(Cl)Cl)[N+](=O)[O-])n2nnc3ccccc32)cc1`: the GI50 with UACC-257 is 26 µM (inactive); in the assay with KM12, 21.2 µM (inactive); with EKVX, 19.1 µM (inactive); in the assay on OVCAR-5, 20.1 µM (inactive); in the assay on OVCAR-4 it was 18.7 µM (inactive); in the assay on MOLT-4 it was 9.64 µM (inactive). The GI50 in the assay on HCT-15 is 24.3 µM; in the assay with COLO 205, 15.1 µM (inactive); with OVCAR-3 it was 16.7 µM (inactive); in the assay on HT-29, 22 µM (inactive); in the assay with HCC 2998 it was 18.7 µM (inactive); in the assay with SF-539, 15.2 µM (inactive). Further, the GI50 with SF-268 was 18.8 µM (inactive); in the assay with SNB-19 it was 18.3 µM (inactive); with NCI-H23 it was 21.5 µM (inactive); with Malme-3M, 16.1 µM (inactive); with NCI-H226, 18.5 µM (inactive).

`O=C1Nc2ccccc2[C@]12C[C@H]2c1ccccn1`: the GI50 with UACC-257, in the assay with KM12, in the assay on EKVX, with OVCAR-5, with HOP-92 and in the assay with OVCAR-4 was > 100 µM (inactive) each time. Also, the GI50 with MOLT-4 is > 100 µM (inactive); in the assay with HCT-15 it was > 100 µM; with COLO 205, > 100 µM (inactive); in the assay on OVCAR-3 it was > 100 µM (inactive); with HCC 2998, > 100 µM (inactive); in the assay on SF-539, > 100 µM (inactive). For the same molecule, the GI50 with SF-268 is > 100 µM (inactive); with SNB-19, > 100 µM (inactive); in the assay on NCI-H23 it was > 100 µM (inactive); in the assay with Malme-3M, > 100 µM (inactive); in the assay on NCI-H226, 62.8 µM (inactive).

The term GI50 denotes the concentration that inhibits growth by half.
